According to patent US12492184B2, “Heteroaryl compounds, preparation methods and uses thereof” (InventisBio Co., Ltd., priority 2020, dated 2025):

Each molecule was assayed on HEK-Blue IL23 Reporter (assay: HEK-Blue IL-23 STAT3 Reporter Assay). Conditions: HEK-Blue IL23 cells stimulated with IL-23 overnight; SEAP read with QUANTI-Blue at OD655.
Assay type: cell-based, human
Protocol: HEK-Blue IL23 cells (InvivoGen catalog #HKB-IL23) are designed for the detection of bioactive IL-23 by monitoring the activation of the STAT3 pathway. They were generated by stably introducing the genes for the human IL-23 receptor, STAT3, and the SEAP (secreted embryonic alkaline phosphatase) reporter gene into human HEK293 cell line.
Briefly, around 50,000 cells in DMEM medium supplemented with 10% heat inactivated FBS (˜180 ul) were seeded into each well and incubate for 48 hours at 37° C. with 5% CO2 in air. On day 3, one microliter of compound and 20 ul IL-23 were transferred to the assay plate respectively. The plate was left in the 37° C. incubator overnight. Two microliter of cell supernatant was transferred to a 384-well plate, and 18 ul of resuspended QUANTI-Blue solution was added to each well. SLAP levels were determined using Tecan Spark at OD655.
Cells with no IL23 added were used as Low control. Cells stimulated with IL23 were used as High control. Inhibition rate was calculated with the formula of % inhibition=100*(High control−Treated Well)/(High Control−Low control). IL-23 reporter assay inhibition IC50 was calculated with the equation of Y=Bottom+(Top-Bottom)/(1+10^((Log IC50−X)*HillSlope)).
`[2H]C([2H])([2H])NC(=O)c1nnc(NC(=O)C2CC2)cc1Nc1nccc2c1S(C)(=O)=NC2` (stereo not shown) [Compound 56] gave an IC50 of 0.3 nM.
`[2H]C([2H])([2H])NC(=O)c1nnc(NC(=O)C2CC2)cc1Nc1nccc2c1S(C)(=O)=NC2` (stereo not shown) [Compound 57] showed an IC50 of 51.7 nM.
With `[2H]C([2H])([2H])NC(=O)c1nnc(NC(=O)C2CCCC2)cc1Nc1nccc2c1S(C)(=O)=NC2` (stereo not shown) [Compound 90] the IC50 was 4.2 nM.
For `[2H]C([2H])([2H])NC(=O)c1nnc(NC(=O)C2CCCC2)cc1Nc1nccc2c1S(C)(=O)=NC2` (stereo not shown) [Compound 91], the IC50 was ≥ 1000 nM.
With `[2H]C([2H])([2H])NC(=O)c1nnc(NC(=O)N2CCCC2)cc1Nc1nccc2c1S(C)(=O)=NC2` (stereo not shown) [Compound 92] the IC50 was ≥ 1000 nM.
`[2H]C([2H])([2H])NC(=O)c1nnc(NC(=O)N2CCCC2)cc1Nc1nccc2c1S(C)(=O)=NC2` (stereo not shown) [Compound 93] showed an IC50 of 13.6 nM.
With `[2H]C([2H])([2H])NC(=O)c1nnc(NC(=O)[C@H]2CC23CC3)cc1Nc1ncccc1S1(=O)=NCCC1` (stereo partly shown) [Compound 95] the IC50 was 19.5 nM.
With `[2H]C([2H])([2H])NC(=O)c1nnc(NC(=O)[C@H]2CC23CC3)cc1Nc1ncccc1S(C)(=O)=NC` (stereo partly shown) [Compound 98] the IC50 was 188 nM.

Same assay, conditions: Homo sapiens, HEK-Blue IL-23, HEK-Blue IL23 cells stimulated with IL-23 overnight; SEAP read with QUANTI-Blue at OD655
`[2H]C([2H])([2H])NC(=O)c1nnc(NC(=O)C2CC2)cc1Nc1ncc(OCCN(C)C)cc1S(C)(=O)=O` [Compound 61] was tested, and the IC50 was 19.9 nM.
Work on `[2H]C([2H])([2H])NC(=O)c1nnc(NC(=O)C2CC2)cc1Nc1ncc(C2(F)COC2)cc1S(C)(=O)=O` [Compound 62] yielded an IC50 of 71.9 nM.
Work on `[2H]C([2H])([2H])NC(=O)c1nnc(NC(=O)C2CC2)cc1Nc1ncc(OC2COC2)cc1S(C)(=O)=O` [Compound 63] yielded an IC50 of 1.9 nM.
Molecule `[2H]C([2H])([2H])NC(=O)c1nnc(NC(=O)C2CC2)cc1Nc1ncc(OC(C)C)cc1S(C)(=O)=O` [Compound 64] has an IC50 of 0.6 nM.
Molecule `[2H]C([2H])([2H])NC(=O)c1nnc(NC(=O)C2CC2)cc1Nc1ncc(N2CCOC[C@H]2C)cc1S(C)(=O)=O` [Compound 65] has an IC50 of 0.5 nM.
With `[2H]C([2H])([2H])NC(=O)c1nnc(NC(=O)C2CC2)cc1Nc1ncc(OCC(C)(C)O)cc1S(C)(=O)=O` [Compound 66] the IC50 was 5.7 nM.
In the case of `[2H]C([2H])([2H])NC(=O)c1nnc(NC(=O)C2CC2)cc1Nc1ncc(OC[C@H](C)OC)cc1S(C)(=O)=O` [Compound 67], the IC50 is reported as 1 nM.
`[2H]C([2H])([2H])NC(=O)c1nnc(NC(=O)C2CC2)cc1Nc1ncc(OC[C@@H](C)OC)cc1S(C)(=O)=O` [Compound 68] showed an IC50 of 0.6 nM.
Work on `[2H]C([2H])([2H])NC(=O)c1nnc(NC(=O)C2CC2)cc1Nc1ncc(O[C@@H](C)COC)cc1S(C)(=O)=O` [Compound 69] yielded an IC50 of 0.2 nM.
`[2H]C([2H])([2H])NC(=O)c1nnc(NC(=O)C2CC2)cc1Nc1ncc(O[C@H](C)COC)cc1S(C)(=O)=O` [Compound 70] was tested, and the IC50 was 1.3 nM.
In the case of `[2H]C([2H])([2H])NC(=O)c1nnc(NC(=O)C2CC2)cc1Nc1nc(C)sc1S(C)(=O)=O` [Compound 71], the IC50 is reported as 5.4 nM.
`[2H]C([2H])([2H])NC(=O)c1nnc(NC(=O)C2CC2)cc1Nc1nc(C)c(F)cc1S(C)(=O)=O` [Compound 72] gave an IC50 of 1.6 nM.
With `[2H]C([2H])([2H])NC(=O)c1nnc(NC(=O)C2CC2)cc1Nc1ncc(OC[C@H](C)OC(F)F)cc1S(C)(=O)=O` [Compound 73] the IC50 was 1.1 nM.
`[2H]C([2H])([2H])NC(=O)c1nnc(NC(=O)C2CC2)cc1Nc1ncc(OC[C@H](C)OC=O)cc1S(C)(=O)=O` [Compound 74] showed an IC50 of 2.2 nM.
In the case of `[2H]C([2H])([2H])NC(=O)c1nnc(NC(=O)C2CC2)cc1Nc1ncc(OC[C@@H](C)OC(F)F)cc1S(C)(=O)=O` [Compound 75], the IC50 is reported as 1.6 nM.
With `[2H]C([2H])([2H])NC(=O)c1nnc(NC(=O)C2CC2)cc1Nc1ncc(OC[C@@H](C)OC=O)cc1S(C)(=O)=O` [Compound 76] the IC50 was 2.5 nM.
With `[2H]C([2H])([2H])NC(=O)c1cnc(NC(=O)C2CC2)cc1Nc1ncc(C2CC2)cc1S(C)(=O)=O` [Compound 77] the IC50 was 1.1 nM.
`[2H]C([2H])([2H])NC(=O)c1nnc(NC(=O)C2CC2)cc1Nc1ncc(OCCOC(F)F)cc1S(C)(=O)=O` [Compound 78] showed an IC50 of 0.8 nM.
Molecule `[2H]C([2H])([2H])NC(=O)c1nnc(NC(=O)C2CC2)cc1Nc1ncc(OCCOC=O)cc1S(C)(=O)=O` [Compound 79] has an IC50 of 3.3 nM.
Work on `[2H]C([2H])([2H])NC(=O)c1cnc(NC(=O)C2CC2)cc1Nc1ncc(Cl)cc1S(C)(=O)=O` [Compound 80] yielded an IC50 of 1.5 nM.
Molecule `[2H]C([2H])([2H])NC(=O)c1cnc(NC(=O)C2CC2)cc1Nc1ncc(OC(C)C)cc1S(C)(=O)=O` [Compound 81] has an IC50 of 0.9 nM.
`[2H]C([2H])([2H])NC(=O)c1nnc(NC(=O)C2CC2)cc1Nc1ncc(N2CCOC[C@@H]2C)cc1S(C)(=O)=O` [Compound 82] gave an IC50 of 9 nM.
`[2H]C([2H])([2H])NC(=O)c1nnc(NC(=O)C2CC2)cc1Nc1nc(C2CC2)sc1S(C)(=O)=O` [Compound 83] showed an IC50 of 7.4 nM.
`[2H]C([2H])([2H])NC(=O)c1nnc(NC(=O)[C@H]2C[C@@H](OC)C2)cc1Nc1ncc(C2CC2)cc1S(C)(=O)=O` [Compound 84] showed an IC50 of 4.1 nM.
`[2H]C([2H])([2H])NC(=O)c1nnc(NC(=O)[C@H]2C[C@H](OC)C2)cc1Nc1ncc(C2CC2)cc1S(C)(=O)=O` [Compound 85] showed an IC50 of 2.1 nM.
Molecule `[2H]C([2H])([2H])NC(=O)c1nnc(NC(=O)[C@H]2C[C@@H](NC)C2)cc1Nc1ncc(C2CC2)cc1S(C)(=O)=O` [Compound 86] has an IC50 of 30.8 nM.
`[2H]C([2H])([2H])NC(=O)c1nnc(NC(=O)[C@H]2C[C@H](NC)C2)cc1Nc1ncc(C2CC2)cc1S(C)(=O)=O` [Compound 87] gave an IC50 of 19.9 nM.
Work on `[2H]C([2H])([2H])NC(=O)c1nnc(NC(=O)NC2CCC2)cc1Nc1ncc(OC)cc1S(C)(=O)=O` [Compound 88] yielded an IC50 of 0.6 nM.
Molecule `[2H]C([2H])([2H])NC(=O)c1nnc(NC(=O)N2CCC2)cc1Nc1ncc(OC)cc1S(C)(=O)=O` [Compound 89] has an IC50 of 7.9 nM.
Work on `[2H]C([2H])([2H])CC(=O)c1nnc(NC(=O)[C@H]2CC23CC3)cc1Nc1ncccc1S(C)(=O)=O` [Compound 96] yielded an IC50 of 189 nM.
For `[2H]C([2H])([2H])NC(=O)c1nnc(NC(=O)[C@H]2CC23CC3)cc1Nc1ncc(SC(F)(F)F)cc1S(C)(=O)=O` [Compound 99], the IC50 was 15.6 nM.
`[2H]C([2H])([2H])NC(=O)c1nnc(NC(=O)[C@H]2CC23CC3)cc1Nc1nc(C)c(OC)cc1S(C)(=O)=O` [Compound 100] was tested, and the IC50 was 2.1 nM.
`[2H]C([2H])([2H])NC(=O)c1nnc(NC(=O)[C@H]2CC23CC3)cc1Nc1nccc(C2CC2)c1S(C)(=O)=O` [Compound 101] gave an IC50 of 11.5 nM.
`[2H]C([2H])([2H])NC(=O)c1nnc(NC(=O)[C@H]2CC23CC3)cc1Nc1ncc(Cl)cc1S(C)(=O)=O` [Compound 102] showed an IC50 of 3.7 nM.
`[2H]C([2H])([2H])NC(=O)c1nnc(NC(=O)[C@H]2CC23CC3)cc1Nc1nscc1S(C)(=O)=O` [Compound 103] gave an IC50 of 5.7 nM.
`[2H]C([2H])([2H])CC(=O)c1nnc(NC(=O)[C@H]2CC23CC3)cc1Nc1ncc(OC)cc1S(C)(=O)=O` [Compound 104] gave an IC50 of 119 nM.
For `[2H]C([2H])([2H])NC(=O)c1nnc(NC(=O)[C@H]2CC23CC3)cc1Nc1ncc(C(F)F)cc1S(C)(=O)=O` [Compound 105], the IC50 was 6.7 nM.
`[2H]C([2H])([2H])NC(=O)c1nnc(NC(=O)[C@H]2CC23CC3)cc1Nc1ncc(OC(F)F)cc1S(C)(=O)=O` [Compound 106] showed an IC50 of 3.6 nM.
`[2H]C([2H])([2H])NC(=O)c1nnc(NC(=O)[C@H]2CC23CC3)cc1Nc1ncc(OCCOC)cc1S(C)(=O)=O` [Compound 107] gave an IC50 of 0.8 nM.
Work on `[2H]C([2H])([2H])NC(=O)c1nnc(NC(=O)[C@H]2CC23CC3)cc1Nc1ncc(OCCN(C)C)cc1S(C)(=O)=O` [Compound 108] yielded an IC50 of 19.5 nM.
In the case of `[2H]C([2H])([2H])NC(=O)c1nnc(NC(=O)[C@H]2CC23CC3)cc1Nc1ncc(C2(F)COC2)cc1S(C)(=O)=O` [Compound 109], the IC50 is reported as 284 nM.
Work on `[2H]C([2H])([2H])NC(=O)c1nnc(NC(=O)[C@H]2CC23CC3)cc1Nc1ncc(OC2COC2)cc1S(C)(=O)=O` [Compound 110] yielded an IC50 of 2.7 nM.
For `[2H]C([2H])([2H])NC(=O)c1nnc(NC(=O)[C@H]2CC23CC3)cc1Nc1ncc(OCC(C)(C)O)cc1S(C)(=O)=O` [Compound 111], the IC50 was 7.5 nM.
`[2H]C([2H])([2H])NC(=O)c1nnc(NC(=O)[C@H]2CC23CC3)cc1Nc1ncc(OC[C@H](C)OC)cc1S(C)(=O)=O` [Compound 112] showed an IC50 of 2.7 nM.
`[2H]C([2H])([2H])NC(=O)c1nnc(NC(=O)[C@H]2CC23CC3)cc1Nc1ncc(OC[C@@H](C)OC)cc1S(C)(=O)=O` [Compound 113] showed an IC50 of 1.2 nM.
In the case of `[2H]C([2H])([2H])NC(=O)c1nnc(NC(=O)[C@H]2CC23CC3)cc1Nc1ncc(O[C@@H](C)COC)cc1S(C)(=O)=O` [Compound 114], the IC50 is reported as 1 nM.
`[2H]C([2H])([2H])NC(=O)c1nnc(NC(=O)[C@H]2CC23CC3)cc1Nc1ncc(O[C@H](C)COC)cc1S(C)(=O)=O` [Compound 115] was tested, and the IC50 was 3.5 nM.
`[2H]C([2H])([2H])NC(=O)c1nnc(NC(=O)[C@@H]2CC23CC3)cc1Nc1ncc(OCCOC(F)F)cc1S(C)(=O)=O` [Compound 116] showed an IC50 of 3 nM.
`[2H]C([2H])([2H])NC(=O)c1nnc(NC(=O)[C@@H]2CC23CC3)cc1Nc1ncc(OCCOC=O)cc1S(C)(=O)=O` [Compound 117] showed an IC50 of 5.7 nM.
Work on `[2H]C([2H])([2H])NC(=O)c1cnc(NC(=O)[C@@H]2CC23CC3)cc1Nc1ncc(C2CC2)cc1S(C)(=O)=O` [Compound 118] yielded an IC50 of 0.6 nM.
